Publication PMC7144209, “Design, synthesis and anticancer activity of naphthoquinone derivatives” (Journal of Enzyme Inhibition and Medicinal Chemistry, 2020)

Experiments:
U87 = assay: MTT cell viability assay, U87 cells; assay type: cell-based; details: Homo sapiens, U-87 MG, 48 h, n = 3
Procedure: (§1) MGC-803, SGC-7901, U87 and SMMC-7721 cell lines were cultured in DMEM supplemented with 10% foetal bovine serum, 100 IU/mL penicillin/streptomycin. The cells were incubated in an atmosphere containing 5% CO2 at 37 °C.
(§2) MGC-803, SGC-7901, U87 and SMMC-7721 cells were plated in 96-well plate at 7000 per well. Cells were incubated with the different concentrations of the compounds for 48 h. Subsequently, MTT (0.5 mg/mL) were used to test the cell viability, then 150 μL DMSO was added to each well after cells were incubated for 4 h and the absorbance was measured at 492 nm.

L02 = assay: MTT cell viability assay, L02 cells; assay type: cell-based; details: Homo sapiens, n = 3
MGC-803 = assay: MTT cell viability assay, MGC-803 cells; assay type: cell-based; details: Homo sapiens, MGC-803, 48 h, n = 3
Procedure: as §1, §2

SMMC-7721 = assay: MTT cell viability assay, SMMC-7721 cells; assay type: cell-based; details: Homo sapiens, 48 h, n = 3
Procedure: as §1, §2

SGC-7901 = assay: MTT cell viability assay, SGC-7901 cells; assay type: cell-based, human; details: Homo sapiens, SGC-7901, 48 h, n = 3
Procedure: as §1, §2

[1] = system: SGC-7901, MGC-803, SMMC-7721, U-87 cell lines; assay: MTT anticancer activity, summary in words over the cell line panel; assay type: cell-based; details: MTT assay
Procedure: as §2
Compounds 1–24 were detected for anticancer activities against SGC-7901, MGC-803, SMMC-7721, U-87 cell lines in vitro by the MTT assay, and ADM was used as the positive control. From Table 1, when the phenolic hydroxyls of naphthoquinone moiety were converted to ether, the activity was missing. […] So colony formation assay of this compound (Figure 4) was used to investigate the effect of it on cell proliferation in SGC-7901 cells. The experiment examined the ability for producing colonies after the cells were treated with the cell death agents[35]^,[36].

| IC50 (U87) [µM] | IC50 (MGC-803) [µM] | IC50 (SMMC-7721) [µM] | IC50 (SGC-7901) [µM] | melting point [°C] | Structure (SMILES) | IC50 (L02) [µM] | anticancer activity (in words) [1] |
| --- | --- | --- | --- | --- | --- | --- | --- |
| 5.2 ± 1.4 | 3.5 ± 1.4 | 18.6 ± 3.6 | 13.3 ± 0.6 |  | CC(C)=CCC(OC(=O)CCC(=O)NCCc1ccc(F)cc1)C1=CC(=O)c2c(O)ccc(O)c2C1=O (stereo not drawn) [Compound 20, 1-(5,8-dihydroxy-1,4-dioxo-1,4-dihydronaphthalen-2-yl)-4-methylpent-3-en-1-yl 4-((4-fluorophenethyl)amino)-4-oxobutanoate] | 12.3 ± 0.5 | good activity |
| > 100 | > 100 | > 100 | > 100 | 102 | CC(C)=CCC(OC(=O)COc1ccc(Cl)cc1)C1=CC(=O)c2c(O)ccc(O)c2C1=O (stereo not drawn) [Compound 6, 1-(5,8-dihydroxy-1,4-dioxo-1,4-dihydronaphthalen-2-yl)-4-methylpent-3-en-1-yl-2-(4-chlorophenoxy)acetate] | > 100 |  |
| 40.7 ± 4.7 | 9.4 ± 0.4 | 46.5 ± 1.7 | 19.8 ± 1.8 | 77 | CCN(CC)C(=O)CCC(=O)OC(CC=C(C)C)C1=CC(=O)c2c(O)ccc(O)c2C1=O (stereo not drawn) [Compound 22, 1-(5,8-dihydroxy-1,4-dioxo-1,4-dihydronaphthalen-2-yl)-4-methylpent-3-en-1-yl 4-(diethylamino)-4-oxobutanoate] | > 50 |  |
| > 100 | 10.2 ± 1.3 | 14.8 ± 0.1 | 10.7 ± 1.8 | 105 | CC(C)=CCC(OC(=O)CCC(=O)Nc1ccc(Br)cc1)C1=CC(=O)c2c(O)ccc(O)c2C1=O (stereo not drawn) [Compound 14, 1-(5,8-dihydroxy-1,4-dioxo-1,4-dihydronaphthalen-2-yl)-4-methylpent-3-en-1-yl-4-((4-bromophenyl)amino)-4-oxobutanoate] | 16.2 ± 1.7 |  |
| > 100 | > 100 | > 100 | > 100 | 60 | CC(C)=CCC(O)C1=CC(=O)c2c(OCc3ccccc3)ccc(OCc3ccccc3)c2C1=O (stereo not drawn) [Compound 2, 5,8-bis(benzyloxy)-2-(1-hydroxy-4-methylpent-3-en-1-yl)naphthalene-1,4-dione] | > 100 |  |
| 8 ± 0.85 | 4.5 ± 1.1 | 15.6 ± 3.3 | 10.6 ± 4.3 | 60 | CC(C)=CCC(OC(=O)CCc1ccccc1)C1=CC(=O)c2c(O)ccc(O)c2C1=O (stereo not drawn) [Compound 3, 1-(5,8-dihydroxy-1,4-dioxo-1,4-dihydronaphthalen-2-yl)-4-methylpent-3-en-1-yl-3-phenylpropanoate] | 13.6 ± 1.5 |  |
| 5.41 ± 0.67 | 5.9 ± 2.6 | 24.3 ± 1.7 | 5.6 ± 2.6 | 127 | CC(C)=CCC(OC(=O)CCC(=O)Nc1cccc2ccccc12)C1=CC(=O)c2c(O)ccc(O)c2C1=O (stereo not drawn) [Compound 16, 1-(5,8-dihydroxy-1,4-dioxo-1,4-dihydronaphthalen-2-yl)-4-methylpent-3-en-1-yl-4-(naphthalen-1-ylamino)-4-oxobutanoate] | 13 ± 2.4 |  |
| 4.45 ± 0.66 | 3.1 ± 0.1 | 12.3 ± 0.1 | 8.6 ± 2.5 |  | CC(C)=CCC(OC(=O)CCC(=O)N1CCCc2ccccc21)C1=CC(=O)c2c(O)ccc(O)c2C1=O (stereo not drawn) [Compound 9, 1-(5,8-dihydroxy-1,4-dioxo-1,4-dihydronaphthalen-2-yl)-4-methylpent-3-en-1-yl-4-(3,4-dihydroquinolin-1(2H)-yl)-4-oxobutanoate] | 12.1 ± 0.8 | good activity |
| 6.1 ± 0.6 | 6.9 ± 3.9 | 15.4 ± 0.4 | 14.8 ± 1.6 | 91 | CC(C)=CCC(OC(=O)CCC(=O)NCCc1ccccc1F)C1=CC(=O)c2c(O)ccc(O)c2C1=O (stereo not drawn) [Compound 21, 1-(5,8-dihydroxy-1,4-dioxo-1,4-dihydronaphthalen-2-yl)-4-methylpent-3-en-1-yl 4-((2-fluorophenethyl)amino)-4-oxobutanoate] | 16 ± 2.2 |  |
| 10 ± 1.6 | 10.4 ± 0.7 | 16.7 ± 1.8 | 20 ± 3.9 | 105 | CC(C)=CCC(OC(=O)CCC(=O)N1CCOCC1)C1=CC(=O)c2c(O)ccc(O)c2C1=O (stereo not drawn) [Compound 8, 1-(5,8-dihydroxy-1,4-dioxo-1,4-dihydronaphthalen-2-yl)-4-methylpent-3-en-1-yl 4-morpholino-4-oxobutanoate] | > 50 |  |
| 9.68 ± 2.3 | 9.7 ± 2.3 | 14.4 ± 1.5 | 33.6 ± 2.1 | 120 | CC(C)=CCC(OC(=O)CCC(=O)N1CCCCC1)C1=CC(=O)c2c(O)ccc(O)c2C1=O (stereo not drawn) [Compound 7, 1-(5,8-dihydroxy-1,4-dioxo-1,4-dihydronaphthalen-2-yl)-4-methylpent-3-en-1-yl-4-oxo-4-(piperidin-1-yl)butanoate] | 36.8 ± 4.1 |  |
| > 100 | > 100 | > 100 | > 100 |  | CCCCCCN(CCCCCC)C(=O)CCC(=O)OC(CC=C(C)C)C1=CC(=O)c2c(O)ccc(O)c2C1=O (stereo not drawn) [Compound 23, 1-(5,8-dihydroxy-1,4-dioxo-1,4-dihydronaphthalen-2-yl)-4-methylpent-3-en-1-yl 4-(dihexylamino)-4-oxobutanoate] | > 100 |  |
| > 100 | > 100 | > 100 | > 100 | 113 | COc1ccccc1NC(=O)CCC(=O)OC(CC=C(C)C)C1=CC(=O)c2c(O)ccc(O)c2C1=O (stereo not drawn) [Compound 15, 1-(5,8-dihydroxy-1,4-dioxo-1,4-dihydronaphthalen-2-yl)-4-methylpent-3-en-1-yl-4-((2-methoxyphenyl)amino)-4-oxobutanoate] | > 100 |  |
| 9.1 ± 2.5 | 5.7 ± 2.4 | 17.9 ± 1 | 7.6 ± 2.3 | 134 | CC(C)=CCC(OC(=O)CCC(=O)NCCc1ccc(Br)cc1)C1=CC(=O)c2c(O)ccc(O)c2C1=O (stereo not drawn) [Compound 19, 1-(5,8-dihydroxy-1,4-dioxo-1,4-dihydronaphthalen-2-yl)-4-methylpent-3-en-1-yl-4-((4-bromophenethyl)amino)-4-oxobutanoate] | 8.5 ± 0.4 |  |
| 20.6 ± 0.6 | 40.8 ± 1.9 | 50.1 ± 0.8 | 38.5 ± 0.7 | 104 | CC(C)=CCC(OC(=O)/C=C\C(=O)N1CCOCC1)C1=CC(=O)c2c(O)ccc(O)c2C1=O (stereo not drawn) [Compound 24, 1-(5,8-dihydroxy-1,4-dioxo-1,4-dihydronaphthalen-2-yl)-4-methylpent-3-en-1-yl (Z)-4-morpholino-4-oxobut-2-enoate] | > 100 |  |
| > 100 | > 100 | > 100 | > 100 | 54 | COc1cc(/C=C/CC(=O)OC(CC=C(C)C)C2=CC(=O)c3c(O)ccc(O)c3C2=O)cc(OC)c1OC (stereo not drawn) [Compound 5, 1-(5,8-dihydroxy-1,4-dioxo-1,4-dihydronaphthalen-2-yl)-4-methylpent-3-en-1-yl (E)-4-(3,4,5-trimethoxyphenyl)but-3-enoate] | > 100 |  |
| 7.7 ± 4.4 | 6.6 ± 4.7 | 17.9 ± 1.6 | 23.7 ± 0.5 | 97.8 | CC(C)=CCC(OC(=O)CCC(=O)NCCc1ccccc1Cl)C1=CC(=O)c2c(O)ccc(O)c2C1=O (stereo not drawn) [Compound 18, 1-(5,8-dihydroxy-1,4-dioxo-1,4-dihydronaphthalen-2-yl)-4-methylpent-3-en-1-yl-4-((2-chlorophenethyl)amino)-4-oxobutanoate] | 20.2 ± 2 |  |
| 12.3 ± 2.8 | 7.9 ± 1.8 | 12.4 ± 2.6 | 11.1 ± 1.2 | 115 | COc1ccc(NC(=O)CCC(=O)OC(CC=C(C)C)C2=CC(=O)c3c(O)ccc(O)c3C2=O)cc1 (stereo not drawn) [Compound 10, 1-(5,8-dihydroxy-1,4-dioxo-1,4-dihydronaphthalen-2-yl)-4-methylpent-3-en-1-yl-4-((4-methoxyphenyl)amino)-4-oxobutanoate] | 11.9 ± 0.6 |  |
| 0.57 ± 0.32 | 0.48 ± 0.06 | 0.46 ± 0.63 | 0.72 ± 0.12 |  | COc1cccc2c1C(=O)c1c(O)c3c(c(O)c1C2=O)C[C@@](O)(C(=O)CO)C[C@@H]3O[C@H]1C[C@H](N)[C@H](O)[C@H](C)O1 [ADM, Adriamycin, reference compound] | > 100 |  |
| > 100 | > 100 | > 100 | > 100 | 94.3 | COc1ccc(OC)c2c1C(=O)C=C(C(O)CC=C(C)C)C2=O (stereo not drawn) [Compound 1, 2-(1-hydroxy-4-methylpent-3-en-1-yl)-5,8-dimethoxynaphthalene-1,4-dione] | > 100 |  |
| 65.7 ± 2.7 | > 100 |  | 75.1 ± 0.4 | 85 | CC(C)=CCC(OC(=O)C=Cc1ccccc1)C1=CC(=O)c2c(O)ccc(O)c2C1=O (stereo not drawn) [Compound 4, 1-(5,8-dihydroxy-1,4-dioxo-1,4-dihydronaphthalen-2-yl)-4-methylpent-3-en-1-yl cinnamate] | > 100 |  |
